Like-named read-outs stand apart in the source and are kept apart here.
Tests used:
DMS 114 = experiment: NCI human tumor in vitro primary screen; format: cell-based; details: small cell lung cancer
DMS 273 = experiment: NCI human tumor in vitro primary screen; format: cell-based; details: small cell lung cancer
[1] = read-out: Log10 GI50 (converted)
[2] = read-out: Log10 TGI (converted)
[3] = read-out: averaged negative log10 GI50 (converted)

C=C1CC2CCC34CC5OC6C(O3)C3OC(CCC3OC6(O)C5O4)CC(=O)OC3C(CC4OC(CCC1O2)CC(C)C4=C)OC1CC2OC4(CC2OC1C3C)CC1OC2(CC(C)C3OC5CC(C(O)CO)OC5CC3O2)CC(C)C1O4 (stereo not drawn) [halistatin 2]
GI50 (DMS 114; [1]): 0.339 nM
IC (TGI) (DMS 114; [2]): 1.91 nM
GI50 (DMS 114; [3]): 0.339 nM
GI50 (DMS 273; [1]): 0.129 nM
IC (TGI) (DMS 273; [2]): 5.5 nM
GI50 (DMS 273; [3]): 0.129 nM

— US5352804A, “Isolation and structure of Halistatin 2” (Arizona Board of Regents, a body corporate, acting on …, priority 1993, dated 1994)
